Source: PubChem BioAssay (NCI)
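Interpolation was linear, between the two tested concentrations surrounding the appropriate level; five concentrations were tested over 48 hours in 96-well plates. At the TGI there is no net growth.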

Tests used:
Assay in all cases: NCI anticancer screen, dose series, 48 h
A549 NSCLC = system: A549 NSCLC
OVCAR-4 ovarian = system: OVCAR-4 ovarian
SK-MEL-2 melanoma = system: SK-MEL-2 melanoma
XF 498 CNS = system: XF 498 CNS
SK-MEL-28 melanoma = system: SK-MEL-28 melanoma
K-562 leukemia = system: K-562 leukemia
SW-620 colon = system: SW-620 colon
DMS 114 small cell lung = system: DMS 114 small cell lung
RXF 393 renal = system: RXF 393 renal
SNB-78 CNS = system: SNB-78 CNS
SR leukemia = system: SR leukemia
KM12 colon = system: KM12 colon
M19-MEL melanoma = system: M19-MEL melanoma
RPMI-8226 leukemia = system: RPMI-8226 leukemia
U251 CNS = system: U251 CNS
DMS 273 small cell lung = system: DMS 273 small cell lung
HS 578T breast = system: HS 578T breast
MDA-N = system: MDA-N
NCI-H23 lung = system: NCI-H23 lung
LXFL 529 NSCLC = system: LXFL 529 NSCLC
SK-OV-3 ovarian = system: SK-OV-3 ovarian
PC-3 prostate = system: PC-3 prostate
TK-10 renal = system: TK-10 renal
LOX IMVI melanoma = system: LOX IMVI melanoma
COLO 205 colon = system: COLO 205 colon
A498 renal = system: A498 renal
UACC-257 melanoma = system: UACC-257 melanoma
SNB-19 CNS = system: SNB-19 CNS
HOP-92 NSCLC = system: HOP-92 NSCLC
NCI-H522 lung = system: NCI-H522 lung
HT29 colon = system: HT29 colon
SK-MEL-5 melanoma = system: SK-MEL-5 melanoma
CCRF-CEM leukemia = system: CCRF-CEM leukemia
HOP-62 NSCLC = system: HOP-62 NSCLC
EKVX NSCLC = system: EKVX NSCLC
HCC-2998 colon = system: HCC-2998 colon
786-0 renal = system: 786-0 renal
M14 melanoma = system: M14 melanoma
MOLT-4 leukemia = system: MOLT-4 leukemia
IGROV1 ovarian = system: IGROV1 ovarian
OVCAR-3 ovarian = system: OVCAR-3 ovarian
CAKI-1 renal = system: CAKI-1 renal
OVCAR-8 ovarian = system: OVCAR-8 ovarian
UACC-62 melanoma = system: UACC-62 melanoma
NCI-H226 lung = system: NCI-H226 lung
DLD-1 colon = system: DLD-1 colon
BT-549 breast = system: BT-549 breast
ACHN renal = system: ACHN renal
KM20L2 colon = system: KM20L2 colon
SF-539 CNS = system: SF-539 CNS
UO-31 renal = system: UO-31 renal
T-47D breast = system: T-47D breast
NCI-H460 lung = system: NCI-H460 lung
MDA-MB-435 = system: MDA-MB-435
HCT-116 colon = system: HCT-116 colon
OVCAR-5 ovarian = system: OVCAR-5 ovarian
SNB-75 CNS = system: SNB-75 CNS
HL-60(TB) leukemia = system: HL-60(TB) leukemia
SF-295 CNS = system: SF-295 CNS
MDA-MB-231 breast = system: MDA-MB-231 breast
HCT-15 colon = system: HCT-15 colon
DU-145 prostate = system: DU-145 prostate
MCF7 breast = system: MCF7 breast
NCI/ADR-RES ovarian = system: NCI/ADR-RES ovarian
SN12C renal = system: SN12C renal
SF-268 CNS = system: SF-268 CNS
MALME-3M melanoma = system: MALME-3M melanoma

Compound: C[C@]12C=CC(=O)C=C1[C@@H](F)C[C@H]1[C@@H]3CC[C@](O)(C(=O)CO)[C@@]3(C)C[C@H](O)[C@@]12F
- TGI (A549 NSCLC): > 100 µM
- TGI (OVCAR-4 ovarian): > 100 µM
- TGI (SK-MEL-2 melanoma): > 100 µM
- TGI (XF 498 CNS): > 100 µM
- TGI (SK-MEL-28 melanoma): > 100 µM
- TGI (K-562 leukemia): > 100 µM
- TGI (SW-620 colon): > 100 µM
- TGI (DMS 114 small cell lung): > 100 µM
- TGI (RXF 393 renal): > 100 µM
- TGI (SNB-78 CNS): > 100 µM
- TGI (SR leukemia): > 100 µM
- TGI (KM12 colon): > 100 µM
- TGI (M19-MEL melanoma): > 100 µM
- TGI (RPMI-8226 leukemia): > 100 µM
- TGI (U251 CNS): > 100 µM
- TGI (DMS 273 small cell lung): > 100 µM
- TGI (HS 578T breast): > 100 µM
- TGI (MDA-N): > 100 µM
- TGI (NCI-H23 lung): > 100 µM
- TGI (LXFL 529 NSCLC): > 100 µM
- TGI (SK-OV-3 ovarian): > 100 µM
- TGI (PC-3 prostate): > 100 µM
- TGI (TK-10 renal): > 100 µM
- TGI (LOX IMVI melanoma): > 100 µM
- TGI (COLO 205 colon): > 100 µM
- TGI (A498 renal): > 100 µM
- TGI (UACC-257 melanoma): > 100 µM
- TGI (SNB-19 CNS): > 100 µM
- TGI (HOP-92 NSCLC): > 100 µM
- TGI (NCI-H522 lung): > 100 µM
- TGI (HT29 colon): > 100 µM
- TGI (SK-MEL-5 melanoma): > 100 µM
- TGI (CCRF-CEM leukemia): > 100 µM
- TGI (HOP-62 NSCLC): > 100 µM
- TGI (EKVX NSCLC): > 100 µM
- TGI (HCC-2998 colon): > 100 µM
- TGI (786-0 renal): > 100 µM
- TGI (M14 melanoma): > 100 µM
- TGI (MOLT-4 leukemia): > 100 µM
- TGI (IGROV1 ovarian): > 100 µM
- TGI (OVCAR-3 ovarian): > 100 µM
- TGI (CAKI-1 renal): > 100 µM
- TGI (OVCAR-8 ovarian): > 100 µM
- TGI (UACC-62 melanoma): > 100 µM
- TGI (NCI-H226 lung): > 100 µM
- TGI (DLD-1 colon): > 100 µM
- TGI (BT-549 breast): > 100 µM
- TGI (ACHN renal): > 100 µM
- TGI (KM20L2 colon): > 100 µM
- TGI (SF-539 CNS): > 100 µM
- TGI (UO-31 renal): > 100 µM
- TGI (T-47D breast): > 100 µM
- TGI (NCI-H460 lung): > 100 µM
- TGI (MDA-MB-435): > 100 µM
- TGI (HCT-116 colon): > 100 µM
- TGI (OVCAR-5 ovarian): > 100 µM
- TGI (SNB-75 CNS): > 100 µM
- TGI (HL-60(TB) leukemia): > 100 µM
- TGI (SF-295 CNS): > 100 µM
- TGI (MDA-MB-231 breast): > 100 µM
- TGI (HCT-15 colon): > 100 µM
- TGI (DU-145 prostate): > 100 µM
- TGI (MCF7 breast): > 100 µM
- TGI (NCI/ADR-RES ovarian): > 100 µM
- TGI (SN12C renal): > 100 µM
- TGI (SF-268 CNS): > 100 µM
- TGI (MALME-3M melanoma): > 100 µM

Compound: COc1ccc2nccc(NCCCN3CCN(CCCNc4ccnc5ccc(OC)cc45)CC3)c2c1
- TGI (A549 NSCLC): 6.55 µM
- TGI (OVCAR-4 ovarian): 2.55 µM
- TGI (SK-MEL-2 melanoma): 7.99 µM
- TGI (XF 498 CNS): 1.56 µM
- TGI (SK-MEL-28 melanoma): 2.92 µM
- TGI (K-562 leukemia): 0.526 µM
- TGI (SW-620 colon): 1.04 µM
- TGI (DMS 114 small cell lung): 1.91 µM
- TGI (RXF 393 renal): 3.69 µM
- TGI (SNB-78 CNS): 3.47 µM
- TGI (SR leukemia): > 26.2 µM
- TGI (KM12 colon): 1.79 µM
- TGI (M19-MEL melanoma): 1.97 µM
- TGI (RPMI-8226 leukemia): 1.46 µM
- TGI (U251 CNS): 1.51 µM
- TGI (DMS 273 small cell lung): 1.67 µM
- TGI (HS 578T breast): 3.27 µM
- TGI (MDA-N): 1.52 µM
- TGI (NCI-H23 lung): 2.12 µM
- TGI (LXFL 529 NSCLC): 1.82 µM
- TGI (SK-OV-3 ovarian): 6.82 µM
- TGI (PC-3 prostate): 4.15 µM
- TGI (TK-10 renal): 22 µM
- TGI (LOX IMVI melanoma): 1.49 µM
- TGI (COLO 205 colon): 1.24 µM
- TGI (A498 renal): 13.5 µM
- TGI (UACC-257 melanoma): 2.62 µM
- TGI (SNB-19 CNS): 5.98 µM
- TGI (HOP-92 NSCLC): 2.35 µM
- TGI (NCI-H522 lung): 0.633 µM
- TGI (HT29 colon): 1.67 µM
- TGI (SK-MEL-5 melanoma): 2.85 µM
- TGI (CCRF-CEM leukemia): > 100 µM
- TGI (HOP-62 NSCLC): 4.4 µM
- TGI (EKVX NSCLC): 7.93 µM
- TGI (HCC-2998 colon): 2.13 µM
- TGI (786-0 renal): 8.99 µM
- TGI (M14 melanoma): 3.19 µM
- TGI (MOLT-4 leukemia): 1.16 µM
- TGI (IGROV1 ovarian): 3.69 µM
- TGI (OVCAR-3 ovarian): 7.73 µM
- TGI (CAKI-1 renal): 15 µM
- TGI (OVCAR-8 ovarian): 2.85 µM
- TGI (UACC-62 melanoma): 2.08 µM
- TGI (NCI-H226 lung): 1.37 µM
- TGI (DLD-1 colon): 5.12 µM
- TGI (BT-549 breast): 11.6 µM
- TGI (ACHN renal): 11.4 µM
- TGI (KM20L2 colon): 3.37 µM
- TGI (SF-539 CNS): 0.681 µM
- TGI (UO-31 renal): 25.8 µM
- TGI (T-47D breast): 4.65 µM
- TGI (NCI-H460 lung): 1.77 µM
- TGI (MDA-MB-435): 1.65 µM
- TGI (HCT-116 colon): 2.54 µM
- TGI (OVCAR-5 ovarian): 4.74 µM
- TGI (SNB-75 CNS): 1.89 µM
- TGI (SF-295 CNS): 5.16 µM
- TGI (MDA-MB-231 breast): 4 µM
- TGI (HCT-15 colon): 32.4 µM
- TGI (DU-145 prostate): 4.86 µM
- TGI (MCF7 breast): 1.37 µM
- TGI (NCI/ADR-RES ovarian): > 100 µM
- TGI (SN12C renal): 1.45 µM
- TGI (SF-268 CNS): 1.79 µM
- TGI (MALME-3M melanoma): 1.88 µM
